Patent publication US20240309003A1, “HETEROCYCLIC COMPOUNDS AS TRIGGERING RECEPTOR EXPRESSED ON MYELOID CELLS 2 AGONISTS AND METHODS OF USE” (Vigil Neuroscience, Inc., priority 2021, published 2024)

Target: T1, human TREM2 (Homo sapiens, UniProt Q9NZC2)
T1 construct: expressed in transfected cells; host or cells: HEK293T
Experiment: TREM2 agonist potency by cellular phosphorylation of Syk (AlphaLisa) in HEK293T-hTREM2 cells
Assay type: cell-based
Procedure, shortened: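 Agonist EC50 from a variable-slope four-parameter fit of % activation, based on AlphaLisa phospho-Syk levels in lysates. Cells: HEK293T-hTREM2 (with DAP12), treated 45 min at room temperature with compound in assay buffer.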

[1] = HEK293 cells expressing human TREM2 and DAP12, Table D-2
[2] = HEK293 cells expressing human TREM2 and DAP12, Table D

T1 sequence (Q9NZC2 19-230): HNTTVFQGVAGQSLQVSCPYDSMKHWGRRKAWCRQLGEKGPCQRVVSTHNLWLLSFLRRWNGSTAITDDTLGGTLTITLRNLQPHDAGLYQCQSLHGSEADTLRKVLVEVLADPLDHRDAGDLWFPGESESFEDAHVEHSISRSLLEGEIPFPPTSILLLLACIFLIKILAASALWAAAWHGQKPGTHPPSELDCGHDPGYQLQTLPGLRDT
T1 sequence (O43914 22-113 partner): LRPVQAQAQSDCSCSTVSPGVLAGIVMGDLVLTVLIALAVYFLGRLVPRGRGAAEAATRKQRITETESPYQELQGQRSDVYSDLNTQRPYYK

| EC50 [1] [µM] | EC50 [2] [µM] | SMILES |
| --- | --- | --- |
| 0.05 to 0.5 |  | Cc1nc2nc(N3C[C@@H](C)O[C@@H](c4cnn(C5CC5)c4CO)C3)nc(-c3ccc(F)cc3F)c2nc1C [Example I-1462, [2-cyclopropyl-4-[(2S,6R)-4-[4-(2,4-difluorophenyl)-6,7-dimethyl-pteridin-2-yl]-6-methyl-morpholin-2-yl]pyrazol-3-yl]methanol] |
|  | < 0.05 | Cc1cnc2c(-c3ccc(Cl)cc3F)nc(N3C[C@@H](C)O[C@@H](c4cnn(C5CC5)c4)C3)nc2n1 [Example 117, (2S,6R)-4-(4-(4-chloro-2-fluorophenyl)-7-methylpteridin-2-yl)-2-(1-cyclopropyl-1H-pyrazol-4-yl)-6-methylmorpholine] |
| < 0.05 |  | Cc1nc2nc([C@H]3CCO[C@@H](c4cnn(C56CC(C5)C6)c4)C3)nc(-c3ccc(F)cc3F)c2nc1C [Example I-1668, 2-[(2R,4S)-2-[1-(1-bicyclo [1.1.1]pentanyl)pyrazol-4-yl]tetrahydropyran-4-yl]-4-(2,4-difluorophenyl)-6,7-dimethyl-pteridine] |
|  | 0.05 to 0.5 | Cc1nc2cc([C@H]3CCO[C@@H](c4cnn(C5CC5)c4)C3)cc(-c3ccc(F)cc3Cl)c2nc1C [Example 229, 5-(2-chloro-4-fluorophenyl)-7-((2R,4S)-2-(1-cyclopropyl-1H-pyrazol-4-yl)tetrahydro-2H-pyran-4-yl)-2,3-dimethylquinoxaline] |
|  | 0.05 to 0.5 | Cc1nc2nc(N3CCO[C@H](c4cc[nH]c(=O)c4)C3)nc(-c3ccc(C(F)(F)F)nc3)c2nc1C [Example 196, (R)-4-(4-(6,7-dimethyl-4-(6-(trifluoromethyl)pyridin-3-yl)pteridin-2-yl)morpholin-2-yl)pyridin-2(1H)-one] |
|  | < 0.05 | Cc1ccc2c(-c3ccc(C(F)(F)F)cc3)nc([C@H]3CCO[C@@H](c4cnn(C5CC5)c4)C3)nc2n1 [Example 217, 2-((2R,4S)-2-(1-cyclopropyl-1H-pyrazol-4-yl)tetrahydro-2H-pyran-4-yl)-7-methyl-4-(4-(trifluoromethyl)phenyl)pyrido [2,3-d]pyrimidine] |
| 0.05 to 0.5 |  | Cc1nc2nc(N3C[C@@H](c4cnn(C(F)F)c4)O[C@@H](C4CC4)C3)nc(-c3ccc(C(F)(F)F)cc3F)c2nc1C [Example I-1712, (2S,6R)-2-cyclopropyl-6-[1-(difluoromethyl)pyrazol-4-yl]-4-[4-[2-fluoro-4-(trifluoromethyl)phenyl]-6,7-dimethyl-pteridin-2-yl]morpholine] |
|  | 0.05 to 0.5 | Cc1ccc2c(-c3ccc(F)cc3F)cc([C@H]3CCO[C@@H](c4cnn(C5CC5)c4)C3)nc2n1 [Example 231] |
|  | < 0.05 | Cc1nc2nc(N3CCO[C@@H](c4cc[nH]c(=O)c4)C3)nc(C34CC(C(F)(F)F)(C3)C4)c2nc1C [Example 198, (S)-4-(4-(6,7-dimethyl-4-(3-(trifluoromethyl)bicyclo[1.1.1]pentan-1-yl)pteridin-2-yl)morpholin-2-yl)pyridin-2(1H)-one] |
|  | 0.05 to 0.5 | Cc1nc2nc([C@H]3CCO[C@@H](c4cnn(C5CC(F)C5)c4)C3)nc(C34CC(C(F)(F)F)(C3)C4)c2nc1C (stereo in doubt) [Example 135, 2-((2R,4S)-2-(1-(3-fluorocyclobutyl)-1H-pyrazol-4-yl)tetrahydro-2H-pyran-4-yl)-6,7-dimethyl-4-(3-(trifluoromethyl)bicyclo[1.1.1]pentan-1-yl)pteridine] |
|  | 3 to 100 | Cc1cc([C@@H]2C[C@H](c3nc(-c4cc(F)c(Cl)c(F)c4)c4nc(C)c(C)nc4n3)CCO2)ccn1 [Example 132, 4-(4-chloro-3,5-difluorophenyl)-6,7-dimethyl-2-((2S,4R)-2-(2-methylpyridin-4-yl)tetrahydro-2H-pyran-4-yl)pteridine] |
|  | < 0.05 | [2H]C1([2H])C[C@H](c2nc(-c3ccc(F)cc3F)c3nc(C)c(C)nc3n2)C[C@]([2H])(c2cnn(C3CC3)c2)O1 [Example 190, 2-((2R,4S)-2-(1-cyclopropyl-1H-pyrazol-4-yl)tetrahydro-2H-pyran-4-yl-2,6,6-d3)-4-(2,4-difluorophenyl)-6,7-dimethylpteridine] |
| 0.05 to 0.5 |  | Cc1nc2cc([C@H]3CCO[C@@H](c4cnn(C5CC5)c4)C3)nc(-c3ccc(F)cc3F)c2nc1CO [Example I-1119, (7-((2R,4S)-2-(1-cyclopropyl-1H-pyrazol-4-yl)tetrahydro-2H-pyran-4-yl)-5-(2,4-difluorophenyl)-2-methylpyrido[3,4-b]pyrazin-3-yl)methanol] |
|  | < 0.05 | Cc1nc2nc(N3CCN(C)[C@H](c4cnn(C5CC5)c4)C3)nc(-c3ccc(Cl)cc3F)c2nc1C [Example 207, (R)-4-(4-chloro-2-fluorophenyl)-2-(3-(1-cyclopropyl-1H-pyrazol-4-yl)-4-methylpiperazin-1-yl)-6,7-dimethylpteridine] |
| 0.05 to 0.5 |  | Cc1nc2nc([C@H]3CCO[C@@H](c4cnn(C5CC5)c4)C3)nc(-c3ccc(OC(F)(F)F)cc3F)c2nc1C [Example I-1313, 2-((2R,4S)-2-(1-cyclopropyl-1H-pyrazol-4-yl)tetrahydro-2H-pyran-4-yl)-4-(2-fluoro-4-(trifluoromethoxy)phenyl)-6,7-dimethylpteridine] |
|  | < 0.05 | Cc1nc2cc([C@H]3CCO[C@@H](c4cnn(C5CC5)c4)C3)nc(-c3ccc(C(F)(F)F)cc3F)c2nc1C [Example 211, 7-((2R,4S)-2-(1-cyclopropyl-1H-pyrazol-4-yl)tetrahydro-2H-pyran-4-yl)-5-(2-fluoro-4-(trifluoromethyl)phenyl)-2,3-dimethylpyrido[3,4-b]pyrazine] |
|  | < 0.05 | Cc1cc([C@@H]2C[C@H](c3cc(-c4ccc(Cl)c(F)c4F)c4cc(C)c(C)nc4n3)CCO2)ccn1 [Example 187, 5-(4-chloro-2,3-difluorophenyl)-2,3-dimethyl-7-((2S,4R)-2-(2-methylpyridin-4-yl)tetrahydro-2H-pyran-4-yl)-1,8-naphthyridine] |
|  | < 0.05 | Cc1cnc2c(-c3ccc(Cl)cc3F)nc([C@H]3C[C@@H](c4cnn(C5CC5)c4)O[C@@H](C)C3)nc2n1 [Example 128, 4-(4-chloro-2-fluorophenyl)-2-((2S,4R,6S)-2-(1-cyclopropyl-1H-pyrazol-4-yl)-6-methyltetrahydro-2H-pyran-4-yl)-7-methylpteridine] |
|  | < 0.05 | Cc1cc([C@H]2C[C@@H](c3nc(-c4ccc(Cl)c(F)c4F)c4ncc(C)nc4n3)CCO2)ccn1 (racemic) [Example 89, 4-(4-chloro-2,3-difluorophenyl)-7-methyl-2-(2-(2-methylpyridin-4-yl)tetrahydro-2H-pyran-4-yl)pteridine] |
|  | 0.5 to 3 | COc1cccc([C@@H]2C[C@H](c3nc(-c4ccc(F)cc4F)c4nc(C)c(C)nc4n3)CCO2)n1 [Example 164, 4-(2,4-difluorophenyl)-2-((2S,4R)-2-(6-methoxypyridin-2-yl)tetrahydro-2H-pyran-4-yl)-6,7-dimethylpteridine] |
|  | 0.05 to 0.5 | Cc1nc2nc([C@@H]3CCO[C@H](c4cnn(C5CCC5)c4)C3)nc(-c3ccc(F)cc3F)c2nc1C [Example 147, 2-((2S,4R)-2-(1-cyclobutyl-1H-pyrazol-4-yl)tetrahydro-2H-pyran-4-yl)-4-(2,4-difluorophenyl)-6,7-dimethylpteridine] |
| 0.05 to 0.5 |  | Cc1nc2nc(N3C[C@@H](CO)O[C@@H](c4cnn(C5CC5)c4)C3)nc(-c3ccc(F)cc3F)c2nc1C [Example I-1333, [(2S,6S)-6-(1-cyclopropylpyrazol-4-yl)-4-[4-(2,4-difluorophenyl)-6,7-dimethyl-pteridin-2-yl]morpholin-2-yl]methanol] |
| 0.5 to 3 |  | CN(C)C(=O)c1nc2c(-c3ccc(F)cc3F)nc(C3CCO[C@@H](c4cnn(C5CC5)c4)C3)nc2nc1C1CC1 (stereo partly drawn) [Example I-1603, 7-cyclopropyl-2-[(2R)-2-(1-cyclopropylpyrazol-4-yl)tetrahydropyran-4-yl]-4-(2,4-difluorophenyl)-N,N-dimethyl-pteridine-6-carboxamide] |
|  | < 0.05 | Cc1ccc2c(-c3cc(F)c(Cl)cc3F)nc([C@H]3CCO[C@@H](c4cnn(C5CC5)c4)C3)nc2n1 [Example 219, 4-(4-chloro-2,5-difluorophenyl)-2-((2R,4S)-2-(1-cyclopropyl-1H-pyrazol-4-yl)tetrahydro-2H-pyran-4-yl)-7-methylpyrido[2,3-d]pyrimidine] |
| < 0.05 |  | Cc1nc2nc(C3CCO[C@@H](c4cnn(C5CC5)c4)C3)nc([C@H]3C[C@H](C(F)(F)F)C3)c2nc1C (stereo partly drawn) [Example I-1432, 2-[(2R)-2-(1-cyclopropylpyrazol-4-yl)tetrahydropyran-4-yl]-6,7-dimethyl-4-[3-(trifluoromethyl)cyclobutyl]pteridine] |
| < 0.05 |  | Cc1nc2nc(C3CCO[C@@H](c4cnn(C5CC5)c4)C3)nc([C@H]3C[C@@H](C(F)(F)F)C3)c2nc1C (stereo partly drawn) [Example I-1414, 2-[(2R)-2-(1-cyclopropylpyrazol-4-yl)tetrahydropyran-4-yl]-6,7-dimethyl-4-[3-(trifluoromethyl)cyclobutyl]pteridine] |
| < 0.05 |  | Cc1nc2nc(C3CCO[C@@H](c4cnn(C5CC5)c4)C3)nc(C3CC4(C3)CC(F)(F)C4)c2nc1C (stereo partly drawn) [Example I-1582, 2-[(2R)-2-(1-cyclopropylpyrazol-4-yl)tetrahydropyran-4-yl]-4-(2,2-difluorospiro[3.3]heptan-6-yl)-6,7-dimethyl-pteridine] |
| 3 to 100 |  | Cc1nc2cc([C@H]3CCO[C@@H](c4cnn(C5CC5)c4)C3)nc(-c3ccc(F)cc3F)c2nc1COC(F)F [Example I-1490, 7-((2R,4S)-2-(1-cyclopropyl-1H-pyrazol-4-yl)tetrahydro-2H-pyran-4-yl)-3-((difluoromethoxy)methyl)-5-(2,4-difluorophenyl)-2-methylpyrido[3,4-b]pyrazine] |

| SMILES | EC50 [1] [µM] | EC50 [2] [µM] |
| --- | --- | --- |
| Cc1nc2nc(N3C[C@@H](C)O[C@@H](c4cnn(C5CC5)c4)C3)cc(C#CC3CC3)c2nc1C [Example I-1104, (2S,6R)-4-[8-(2-cyclopropylethynyl)-2,3-dimethyl-pyrido[2,3-b]pyrazin-6-yl]-2-(1-cyclopropylpyrazol-4-yl)-6-methyl-morpholine] | 0.5 to 3 |  |
